The results in this text go back to the NIST ThermoML archive (doi:10.1016/j.tca.2013.04.011).

The structures appear in SMILES notation. Numbers after ± are expanded uncertainties.

The conditions of this data set: 101.33 kPa, Liquid; for speed of sound: Single path-length method; for mass density: Vibrating tube method.

With `CCn1cc[n+](C)c1.F[B-](F)(F)F` [1-ethyl-3-methylimidazolium tetrafluoroborate], the speed of sound (in general, how fast a sound wave travels through the sample) reads like this: (293.15 K) 1631 ± 2 m/s; (298.15 K) 1619.4 ± 2 m/s; (303.15 K) 1607.6 ± 2 m/s; (308.15 K) 1596.3 ± 2 m/s. Further, the mass density (commonly mass per unit of volume) worked out at 1283.89 ± 1.9 kg/m3 (293.15 K), 1279.91 ± 1.9 kg/m3 (298.15 K), 1276.26 ± 1.9 kg/m3 (303.15 K) and 1272.07 ± 1.9 kg/m3 (308.15 K).
For `O=C1CCCN1` [2-pyrrolidinone], the speed of sound reads like this: (293.15 K) 1650.1 ± 1.1 m/s; (298.15 K) 1633.9 ± 1.1 m/s; (303.15 K) 1617.1 ± 1.1 m/s; (308.15 K) 1601.8 ± 1.1 m/s. The mass density turned out to be 1111.28 ± 0.41 kg/m3 (293.15 K), 1107.15 ± 0.41 kg/m3 (298.15 K), 1103.02 ± 0.41 kg/m3 (303.15 K) and 1098.9 ± 0.4 kg/m3 (308.15 K).
With `CN1CCCC1=O` [N-methylpyrrolidone], the speed of sound runs as follows: (293.15 K) 1565.5 ± 1.1 m/s; (298.15 K) 1546 ± 1.1 m/s; (303.15 K) 1527.2 ± 1.1 m/s; (308.15 K) 1507.4 ± 1.1 m/s. Further, the mass density reads like this: (293.15 K) 1033.23 ± 0.33 kg/m3; (298.15 K) 1028.23 ± 0.33 kg/m3; (303.15 K) 1023.46 ± 0.32 kg/m3; (308.15 K) 1018.66 ± 0.32 kg/m3.
